Assay results reported in patent publication US20260217767A1, “NOVEL A4B7 THIOETHER PEPTIDE DIMER ANTAGONISTS” (Protagonist Therapeutics, Inc., priority 2014, published 2026).
Where a SMILES comes first, the peptide text is derived from it.

Key:
[1] = system: CD4+/CD45RO+ memory T cells; assay: PBMC Memory T Cell Adhesion Assay; format: cell-based, human
Method: PBMC Memory T Cell Adhesion Assay
Fresh CD4+/CD45RO+ memory T cells were isolated from human peripheral blood mononuclear cell (PBMC) donors by Aragen Bioscience Inc. (Morgan Hill, CA). The assay plate was prepared using IgG Fc capture antibody (donkey anti human) immobilized at 500 ng/well in 50 mM sodium bicarbonate buffer, pH 9.5, ON, 4 C onto a Greiner Fluotrac plate (100 ul per well). The plate was rinsed two time with Blocking Buffer (25 mM Tris HCl, pH7.5, 150 mM NaCl, 1.5% BSA, 0.05% Tween), and blocked with Blocking Buffer for 2 hours at 37 C or 5 hours at RT using 200 ul per well. The Blocking Buffer was removed and either MAdCAM-1 or VCAM-1 at 400 ng/well in Blocking Buffer was added and the plate incubated overnight at 4 C (100 ul per well). The plate was washed two times with Blocking Buffer, and rinsed once with 200 ul Binding Media (DMEM phenol red free, 10 mM HEPES, 1×Na pyruvate, 1× Glutamine, and supplemented with 1 mM MnC12 prior to use). To prepare cells, approximately 25 million CD4+/CD45RO+ memory T cells were counted by trypan blue exclusion using a haemocytometer to determine viability and cell count. The cells were transferred to a 50 ml conical tube, and centrifuged at 1200 rpm for 10 minute. The media was aspirated and the cell pellet resuspended in 15 ml Binding Media. The cells were centrifuged again and resuspended in the appropriate amount of Binding Media to be used for assays (50 ul of cells per well at 2× the final density). To each well, and equal volume (50 ul) of test compound was added and the plate was incubated for 1.5 hours at 37 C, 5% CO2. Each well was rinsed 3× with 150 ul per well of Binding Media. […] The plate was incubated at 37 C, 5% CO2, for 45 minutes. The plate was protected from light by using black adhesive seals. Fluorescence intensity was measured using a Molecular Devices Gemini EM Fluorescent Plate Reader (Ex 485/Em530, Bottom Read, Reading Sensitivity=20). IC50 curves are generated using Graph Pad Prism and the curves analyzed using analyzed using a non-linear regression (four parameters) algorithm. The log (concentration) versus RFU (Ex485/Em530) was plotted to determine IC50 values.

[2] = Simulated Gastric Fluid (SGF) Stability Assay; format: in vitro ADME; settings: simulated gi fluid; porcine pepsin, pH 2, 37° C.; dimers, Table 7
Method: Simulated Gastric Fluid (SGF) Stability Assays
Studies were carried out in simulated gastric fluid (SGF) to evaluate intestinal stability of the peptide molecules of the instant invention. SGF was prepared by adding 20 mg NaCl, 32 mg porcine pepsin (MP Biochemicals, catalog 02102599), and 70 μl HCl to 10 ml water (final pH=2). Aliquots of SGF (0.5 ml each) were pre-warmed at 37° C. To start the reaction, 1 μl of peptide stock solution (10 mM in DMSO) was added to 0.5 ml SGF and thoroughly mixed such that the final peptide concentration was 20 μM. The reactions were incubated at 37° C. with gentle shaking. At each time point (0, 15, 30, 60 min) 50 μl aliquots were removed and added to 200 μl acetonitrile containing 0.1% formic acid to quench the reaction. Samples are stored at 4° C. until the end of the experiment and centrifuged at 10,000 rpm for 5 minutes. Aliquots of the supernatant were removed, diluted 1:1 into distilled water containing internal standard, and analyzed by LCMS/MS. Percent remaining at each timepoint was calculated based on the peak area response ratio of test to compound to internal standard. Time 0 was set to 100%, and all later timepoints were calculated relative to time 0. Half-lives were calculated by fitting to a first-order exponential decay equation using GraphPad.

[3] = Simulated Intestinal Fluid (SIF) Stability Assay; format: in vitro ADME; settings: simulated gi fluid, porcine pancreatin
Outline: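 Peptide at 22 μM final was incubated at 37° C in blank FaSSIF pH 6.5 with 1% porcine pancreatin. Timed samples were quenched in acetonitrile/methanol/formic acid with internal standard and analysed by LC-MS/MS. Half-lives came from first-order exponential fits of percent remaining.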

RPMI 8866 cells = target: T1, RPMI 8866 cells (Homo sapiens, UniProt P13612+P26010); assay: α4β7-MAdCAM Cell Adhesion Assay; format: cell-based; settings: thioether peptide dimers, Table 7; read-out: Cell-Adhesion A4B7
T1 sequence (P13612 34-1032): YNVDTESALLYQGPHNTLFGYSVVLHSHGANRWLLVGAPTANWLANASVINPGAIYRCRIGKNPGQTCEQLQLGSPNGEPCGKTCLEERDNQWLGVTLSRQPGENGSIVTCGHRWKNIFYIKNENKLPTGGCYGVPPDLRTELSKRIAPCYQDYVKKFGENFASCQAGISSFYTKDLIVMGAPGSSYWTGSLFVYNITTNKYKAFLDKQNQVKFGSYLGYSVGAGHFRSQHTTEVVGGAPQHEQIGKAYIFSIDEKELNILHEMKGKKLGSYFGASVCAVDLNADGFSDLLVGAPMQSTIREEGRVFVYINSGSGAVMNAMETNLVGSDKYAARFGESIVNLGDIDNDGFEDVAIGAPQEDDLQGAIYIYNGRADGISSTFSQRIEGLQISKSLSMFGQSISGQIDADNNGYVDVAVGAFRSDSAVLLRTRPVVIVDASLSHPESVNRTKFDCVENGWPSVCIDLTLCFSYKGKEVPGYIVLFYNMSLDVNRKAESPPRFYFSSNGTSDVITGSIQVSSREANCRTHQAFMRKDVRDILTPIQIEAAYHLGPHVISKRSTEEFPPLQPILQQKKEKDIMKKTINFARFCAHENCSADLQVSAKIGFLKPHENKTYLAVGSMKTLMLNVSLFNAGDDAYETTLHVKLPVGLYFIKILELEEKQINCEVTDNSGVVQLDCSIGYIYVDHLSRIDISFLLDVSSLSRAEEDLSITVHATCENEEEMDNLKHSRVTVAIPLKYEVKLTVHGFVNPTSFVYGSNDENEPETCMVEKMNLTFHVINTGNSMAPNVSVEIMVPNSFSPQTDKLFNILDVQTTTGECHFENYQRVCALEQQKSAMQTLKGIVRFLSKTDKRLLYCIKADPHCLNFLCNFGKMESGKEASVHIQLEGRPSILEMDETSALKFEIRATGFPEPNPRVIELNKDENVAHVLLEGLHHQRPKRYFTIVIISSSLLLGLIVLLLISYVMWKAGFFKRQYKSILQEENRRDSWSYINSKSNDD
T1 sequence (P26010 20-798): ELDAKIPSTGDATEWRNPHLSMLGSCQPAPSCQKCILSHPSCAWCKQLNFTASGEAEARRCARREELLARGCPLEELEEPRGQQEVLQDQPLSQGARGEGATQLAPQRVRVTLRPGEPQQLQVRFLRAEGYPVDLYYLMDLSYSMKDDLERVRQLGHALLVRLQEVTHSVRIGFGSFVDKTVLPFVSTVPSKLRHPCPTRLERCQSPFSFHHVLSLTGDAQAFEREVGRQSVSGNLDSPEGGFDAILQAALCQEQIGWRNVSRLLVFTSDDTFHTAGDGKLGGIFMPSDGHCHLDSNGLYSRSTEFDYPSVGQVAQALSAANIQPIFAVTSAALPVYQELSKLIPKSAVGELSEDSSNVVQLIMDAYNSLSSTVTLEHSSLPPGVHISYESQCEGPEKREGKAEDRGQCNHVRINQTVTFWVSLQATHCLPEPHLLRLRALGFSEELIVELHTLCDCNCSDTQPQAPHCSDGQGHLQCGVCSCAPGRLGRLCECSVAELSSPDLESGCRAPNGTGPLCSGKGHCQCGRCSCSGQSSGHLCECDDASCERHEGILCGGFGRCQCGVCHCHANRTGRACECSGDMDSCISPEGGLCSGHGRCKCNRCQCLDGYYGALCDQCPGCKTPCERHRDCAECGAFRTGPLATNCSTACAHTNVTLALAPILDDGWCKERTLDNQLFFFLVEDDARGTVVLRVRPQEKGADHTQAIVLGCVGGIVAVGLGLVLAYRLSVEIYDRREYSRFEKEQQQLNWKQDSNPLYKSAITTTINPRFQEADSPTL
Outline: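 RPMI 8866 cells (200,000/well) in DMEM with 1 mM MnCl2 and 0.1% BSA were allowed to adhere 30-45 min at 37° C to plates coated with rh MAdCAM-1/Fc (200 ng/well) in presence of serially diluted peptide. After washing, bound cells quantified by MTT, absorbance 570 nm, cell-free background subtracted.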

[4] = Dithiothreitol (DTT) Redox Stability Assay; format: physicochemical; settings: 0.5 mM DTT, room temperature; control peptide monomers, Table 8
Method: Studies were carried out under redox conditions to evaluate intestinal stability of the peptide molecules of the instant invention.
Dithiothreitol (DTT) Redox Stability Assay
The DTT stability assay was prepared by adding 5 μl of a 10 mM peptide stock solution in DMSO to 1 ml of 100 mM Tris-Cl, pH 7.5 (final peptide concentration is 50 μM). At time 0 min, 5 μl of a freshly thawed 100 mM DTT solution was added such that the final DTT concentration is 0.5 mM. The reactions were incubated at room temperature. At different time points up to 120 minutes, 50 μl aliquots were removed and the reaction was quenched by adding 10 ul of 5M acetic acid. To measure disappearance of the parent peptide, the quenched samples (30 μl) were analyzed by reverse phase HPLC and UV absorbance at 220 nm. Half-lives were calculated by fitting to a first-order exponential decay equation using Excel.

[5] = thioether peptide dimers, Table 7
[6] = control peptide monomers, Table 8

Redox stability (DTT) [4] [min]	half-life [3, 6] [h]	Structure (SMILES)	IC50 [1, 5] [nM]	also measured
–	–	CC(C)C[C@@H]1NC(=O)[C@H]([C@@H](C)O)NC(=O)[C@H](CC(=O)O)NC(=O)[C@H](CO)NC(=O)[C@H](CCCNC(=N)N)N(C)C(=O)c2ccccc2CSC(C)(C)[C@@H](C(=O)N[C@@H](Cc2c[nH]c3ccccc23)C(=O)N[C@H](CCC(=O)O)C(N)=O)NC1=O [compound 98] (HELM PEPTIDE1{[meR].S.D.T.L.[Pen].W.[dE].[am]}|CHEM1{[O=C(c1ccccc1C[*:2])[*:1]]}$PEPTIDE1,CHEM1,1:R1-1:R1|PEPTIDE1,CHEM1,6:R3-1:R2$$$V2.0)	–	IC50 ([1]; thioether monomer peptides, Table 6): 100 to 1000 nM
–	–	CC(C)C[C@@H]1NC(=O)[C@H]([C@@H](C)O)NC(=O)[C@H](CC(=O)O)NC(=O)[C@H](CO)NC(=O)[C@H](CCCNC(=N)N)N(C)C(=O)c2ccccc2CSC(C)(C)[C@@H](C(=O)N[C@@H](Cc2ccccc2)C(=O)N[C@H](CCC(=O)O)C(=O)N[C@H](CCCCN)C(N)=O)NC1=O [compound 155] (HELM PEPTIDE1{[meR].S.D.T.L.[Pen].F.[dE].[dK].[am]}|CHEM1{[O=C(c1ccccc1C[*:2])[*:1]]}$PEPTIDE1,CHEM1,1:R1-1:R1|PEPTIDE1,CHEM1,6:R3-1:R2$$$V2.0)	25 to 100	half-life [2]: > 3 h; half-life ([3]; 37° C., dimers, Table 7): > 3 h
–	–	CC(C)C[C@@H]1NC(=O)[C@H]([C@@H](C)O)NC(=O)[C@H](CC(=O)O)NC(=O)[C@H](CO)NC(=O)[C@H](CCCNC(=N)N)N(C)C(=O)c2ccccc2CSC(C)(C)[C@@H](C(=O)N[C@@H](Cc2ccc(C(C)(C)C)cc2)C(=O)N[C@@H](CCC(=O)O)CC(=O)N[C@H](CCCCN)C(N)=O)NC1=O [compound 222]	< 25	IC50 (RPMI 8866 cells): < 25 nM
~3	< 0.0167	CC(=O)N[C@H]1CSSC[C@@H](C(=O)NCC(=O)N[C@@H](CCC(=O)O)C(N)=O)NC(=O)[C@H](CC(C)C)NC(=O)[C@H]([C@@H](C)O)NC(=O)[C@H](CC(=O)O)NC(=O)[C@H](CO)NC(=O)[C@H](CCCNC(=N)N)NC1=O [compound 385] (HELM PEPTIDE1{[ac].C.R.S.D.T.L.C.G.E.[am]}$PEPTIDE1,PEPTIDE1,2:R3-8:R3$$$V2.0; bridges inferred)	–	–
~3	< 0.0167	CC(=O)N[C@H]1CSSC[C@@H](C(N)=O)NC(=O)[C@H](CC(C)C)NC(=O)[C@H]([C@@H](C)O)NC(=O)[C@H](CC(=O)O)NC(=O)[C@H](CO)NC(=O)[C@H](CCCNC(=N)N)NC1=O [compound 386] (HELM PEPTIDE1{[ac].C.R.S.D.T.L.C.[am]}$PEPTIDE1,PEPTIDE1,2:R3-8:R3$$$V2.0; bridges inferred)	–	–
